Structures can show the parent of a compound that is named as a salt.
What was measured:
[1] = biological target: T1, human CYP11B2 (Homo sapiens, UniProt P19099); experiment: G-402 cellular enzyme assay, human CYP11B2 (aldosterone release, HTRF); format: cell-based; conditions: G-402 cells expressing human CYP11B2; 1 μM Deoxycorticosterone
T1 construct: expressed in transfected cells
T1 sequence (P19099 25-503): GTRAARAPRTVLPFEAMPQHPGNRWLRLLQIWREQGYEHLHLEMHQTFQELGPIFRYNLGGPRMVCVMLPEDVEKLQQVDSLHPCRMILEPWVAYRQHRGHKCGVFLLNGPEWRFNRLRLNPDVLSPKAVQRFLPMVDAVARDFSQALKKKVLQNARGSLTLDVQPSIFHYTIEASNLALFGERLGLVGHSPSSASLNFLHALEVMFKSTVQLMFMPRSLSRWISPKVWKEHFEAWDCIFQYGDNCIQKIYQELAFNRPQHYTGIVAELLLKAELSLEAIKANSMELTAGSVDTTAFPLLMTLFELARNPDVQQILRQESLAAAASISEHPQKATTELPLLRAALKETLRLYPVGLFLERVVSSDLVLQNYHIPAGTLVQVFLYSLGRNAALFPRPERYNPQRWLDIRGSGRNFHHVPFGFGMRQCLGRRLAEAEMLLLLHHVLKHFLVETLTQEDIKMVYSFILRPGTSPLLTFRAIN
Method in brief: (§1)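 G-402 cells stably expressing human CYP11B2 or CYP11B1, in DMEM/F12 with 2.5% charcoal-treated FCS, were incubated 16 h with compound plus 1 μM deoxycorticosterone (CYP11B2) or 1 μM deoxycortisol (CYP11B1). Aldosterone or cortisol in the supernatant measured by HTRF; EC50 from a 4-parameter MMF fit.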

[2] = biological target: T2, human CYP11B1 (Homo sapiens, UniProt P15538); experiment: G-402 cellular enzyme assay, human CYP11B1 (cortisol release, HTRF); format: cell-based; conditions: G-402 cells expressing human CYP11B1; 1 μM Deoxycortisol
T2 construct: expressed in transfected cells
T2 sequence (P15538 25-503): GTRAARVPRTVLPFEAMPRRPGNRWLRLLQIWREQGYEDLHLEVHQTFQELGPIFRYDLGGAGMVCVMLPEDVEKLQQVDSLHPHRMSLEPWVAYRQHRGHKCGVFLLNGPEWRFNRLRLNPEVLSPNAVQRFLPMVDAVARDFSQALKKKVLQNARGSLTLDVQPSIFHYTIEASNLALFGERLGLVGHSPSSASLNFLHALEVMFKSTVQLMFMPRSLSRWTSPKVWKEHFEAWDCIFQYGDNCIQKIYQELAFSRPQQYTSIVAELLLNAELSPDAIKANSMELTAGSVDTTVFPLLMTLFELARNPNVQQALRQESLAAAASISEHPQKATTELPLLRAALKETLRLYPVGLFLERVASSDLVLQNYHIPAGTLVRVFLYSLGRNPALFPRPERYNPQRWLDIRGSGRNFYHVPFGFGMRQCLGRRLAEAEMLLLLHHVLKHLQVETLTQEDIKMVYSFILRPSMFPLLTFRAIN
Method in brief: as §1

Structure (SMILES) | EC50 [1] [nM] | EC50 [2] [nM]
CN1C(=O)CCc2cc(-c3cncc(OC[C@@H]4CCN4)c3)ccc21 [Example 63, 6-[5-((S)-1-Azetidin-2-ylmethoxy)-pyridin-3-yl]-1-methyl-3,4-dihydro-1H-quinolin-2-one] | 731 | 16000
CCS(=O)(=O)N(Cc1cncc(-c2ccc3c(c2)CCC(=O)N3C)c1)C(C)C [Example 184, Ethanesulfonic acid isopropyl-[5-(1-methyl-2-oxo-1,2,3,4-tetrahydro-quinolin-6-yl)-pyridin-3-ylmethyl]-amide] | 227 | 9740
CN1C(=O)CCc2cc(-c3cncc(O[C@H]4CC[C@H](NS(C)(=O)=O)CC4)c3)ccc21 [Example 245, N-{(trans)-4-[5-(1-Methyl-2-oxo-1,2,3,4-tetrahydro-quinolin-6-yl)-pyridin-3-yloxy]-cyclohexyl}-methanesulfonamide] | 1 | 72
CN1C(=O)CCc2cc(-c3cncc(N4CC5(CN(C(=O)OC(C)(C)C)C5)C4)n3)ccc21 [Example 28, 6-[6-(1-methyl-2-oxo-1,2,3,4-tetrahydro-quinolin-6-yl)-pyrazin-2-yl]-2,6-diaza-spiro[3.3]heptane-2-carboxylic acid tert-butyl ester] | 121 | 780
CN1C(=O)CCc2cc(-c3cncc(CN)c3Cl)ccc21 [Example 218, 6-(5-Aminomethyl-4-chloro-pyridin-3-yl)-1-methyl-3,4-dihydro-1H-quinolin-2-one hydrochloride] | 29 | 1200
CCS(=O)(=O)NCc1cncc(-c2cc3c4c(c2)CCC(=O)N4CCC3)c1 [Example 235, Ethanesulfonic acid [5-(3-oxo-2,3,6,7-tetrahydro-1H,5H-pyrido[3,2,1-ij]quinolin-9-yl)-pyridin-3-ylmethyl]-amide] | 109 | 4660
Cn1c(=O)ccc2cc(-c3cncc(C4(N)CC4)c3)ccc21 [Example 262, 6-[5-(1-Amino-cyclopropyl)-pyridin-3-yl]-1-methyl-1H-quinolin-2-one] | 84 | 1820
CCS(=O)(=O)NCc1cncc(-c2ccc3c(c2)CCC(=O)N3C)c1C [Example 194, Ethanesulfonic acid [4-methyl-5-(1-methyl-2-oxo-1,2,3,4-tetrahydro-quinolin-6-yl)-pyridin-3-ylmethyl]-amide] | 41 | 1700
Cc1c(-c2ccc3c(c2)CCC(=O)N3C)cncc1C(C)N (single isomer, unassigned) [Example 240, 6-[5-((R or S)-1-Amino-ethyl)-4-methyl-pyridin-3-yl]-1-methyl-3,4-dihydro-1H-quinolin-2-one hydrochloride] | 250 | 15000
Cc1cccnc1C(=O)NC1(c2cncc(-c3ccc4c(c3)CCC(=O)N4C)c2)CC1 [Example 143] | 9 | 51
CC(=O)N1CC[C@H](Oc2cncc(-c3ccc4c(c3)CCC(=O)N4C)c2)C1 [Example 254, 6-[5-((S)-1-Acetyl-pyrrolidin-3-yloxy)-pyridin-3-yl]-1-methyl-3,4-dihydro-1H-quinolin-2-one] | 1 | 49
Cc1noc(C)c1C(=O)NCCOc1cncc(-c2cc3c(cc2F)N(C)C(=O)CC3)c1 [Example 267, 3,5-Dimethyl-isoxazole-4-carboxylic acid {2-[5-(7-fluoro-1-methyl-2-oxo-1,2,3,4-tetrahydro-quinolin-6-yl)-pyridin-3-yloxy]-ethyl}-amide] | 1 | 236
CC(N)c1cncc(-c2ccc3c(c2)CCC(=O)N3C)c1Cl (single isomer, unassigned) [Example 250, 6-[5-((R or S)-1-Amino-ethyl)-4-chloro-pyridin-3-yl]-1-methyl-3,4-dihydro-1H-quinolin-2-one hydrochloride] | 35 | 1250
Cc1cccnc1C(=O)N(C)Cc1cncc(-c2ccc3c(c2)CCC(=O)N3C)c1 [Example 199, 3-Methyl-pyridine-2-carboxylic acid methyl-[5-(1-methyl-2-oxo-1,2,3,4-tetrahydro-quinolin-6-yl)-pyridin-3-ylmethyl]-amide] | 3 | 28
CCC(=O)N1CC[C@H](Oc2cncc(-c3cc4c(cc3F)N(C)C(=O)CC4)c2)C1 [Example 122] | 9 | 535
CN1C(=O)CCc2cc(-c3cncc(CNC(=O)c4ccnnc4)c3)ccc21 [Example 89] | 14 | 276
CN1C(=O)CCc2cc(-c3cncc(OCCN)c3)c(F)cc21 [Example 238, 6-[5-(2-Amino-ethoxy)-pyridin-3-yl]-7-fluoro-1-methyl-3,4-dihydro-1H-quinolin-2-one hydrochloride] | 5 | 513
Cc1noc(C)c1S(=O)(=O)NCc1cncc(-c2ccc3c(c2)CCC(=O)N3C)c1 [Example 154, 3,5-Dimethyl-isoxazole-4-sulfonic acid [5-(1-methyl-2-oxo-1,2,3,4-tetrahydro-quinolin-6-yl)-pyridin-3-ylmethyl]-amide] | 114 | 1430
CN1C(=O)CCc2cc(-c3cncc(O[C@H]4CC[C@H](N)CC4)c3)ccc21 [Example 71, 6-[5-((trans)-4-amino-cyclohexyloxy)-pyridin-3-yl]-1-methyl-3,4-dihydro-1H-quinolin-2-one hydrochloride] | 81 | 2500
CCC(=O)N1CCC[C@@H]1COc1cncc(-c2ccc3c(c2)CCC(=O)N3C)c1 [Example 128] | 119 | 2290
CN(Cc1cncc(-c2cc3c(cc2F)N(C)C(=O)CC3)c1)C(=O)c1ncccc1Cl [Example 200, 3-Chloro-pyridine-2-carboxylic acid [5-(7-fluoro-1-methyl-2-oxo-1,2,3,4-tetrahydro-quinolin-6-yl)-pyridin-3-ylmethyl]-methyl-amide] | 1 | 31
Cc1noc(C)c1C(=O)NCc1cncc(-c2ccc3c(c2)CCC(=O)N3C)c1C [Example 223, 3,5-Dimethyl-isoxazole-4-carboxylic acid [4-methyl-5-(1-methyl-2-oxo-1,2,3,4-tetrahydro-quinolin-6-yl)-pyridin-3-ylmethyl]-amide] | 36 | 2860
CCS(=O)(=O)N(C)Cc1cncc(-c2cc3c(cc2F)N(C)C(=O)CC3)c1 [Example 211, Ethanesulfonic acid [5-(7-fluoro-1-methyl-2-oxo-1,2,3,4-tetrahydro-quinolin-6-yl)-pyridin-3-ylmethyl]-methyl-amide] | 5 | 119
CCOCCN(Cc1cncc(-c2ccc3c(c2)CCC(=O)N3C)c1)S(=O)(=O)CC [Example 185, Ethanesulfonic acid (2-ethoxy-ethyl)-[5-(1-methyl-2-oxo-1,2,3,4-tetrahydro-quinolin-6-yl)-pyridin-3-ylmethyl]-amide] | 633 | 9290
CCS(=O)(=O)NC1(c2cncc(-c3cc4c(cc3F)N(C)C(=O)CC4)c2)CC1 [Example 171, Ethanesulfonic acid {1-[5-(7-fluoro-1-methyl-2-oxo-1,2,3,4-tetrahydro-quinolin-6-yl)-pyridin-3-yl]-cyclopropyl}-amide] | 9 | 420
CCS(=O)(=O)NCc1cncc(-c2ccc3c(c2)C(C)(C)CC(=O)N3C)c1 [Example 17] | 4650 | > 10000

— patent US9260408B2, “Dihydroquinoline-2-one derivatives” (Hoffmann-La Roche Inc., priority 2011, dated 2016)
